Data reported in patent US20150004110A1, “NOVEL ANTI-AGING AND DEPIGMENTING COSMETIC COMPOSITIONS” (DIVERCHIM, priority 2011, published 2015).
Read-outs that look alike come from different tables or passages of the source.

Experiments:
[1] = tested on: B16 melanocytes; assay: Cell viability, MTT reduction test; assay type: cell-based
Procedure: The melanocytes were seeded in a 96-well plate and were cultured for 24 h (37° C., 5% CO2, DMEM 1 g/L glucose without phenol red supplemented with glucose at 3 g/L, L-glutamine at 2 mM, penicillin at 50 U/mL, streptomycin at 50 μg/mL, foetal calf serum (FCS) at 10%). After incubation, the culture medium was then replaced with culture medium supplemented or not supplemented (unstimulated control) with a stable derivative of α-MSH and containing or not containing (controls) the test compounds or the reference (kojic acid at 25, 100, 400, 800 μg/mL). Each experiment was carried out with n=3, apart from the controls carried out with n=6, then the cells were incubated for 72 h. Wells without cells received in parallel the same quantities of medium supplemented or not supplemented with NDP-MSH and containing or not containing the test compounds or the reference in order to quantify the background noise associated with the presence of the compounds. At the end of the treatment, the cells were incubated in the presence of MTT (tetrazolium salt), the transformation of which to blue crystals of formazan is proportional to the activity of succinate dehydrogenase (mitochondrial enzyme). After dissociation of the cells, the formazan was dissolved in DMSO medium and the optical density (OD), representative of the number of living cells and of their metabolic reactivity, was measured with a microplate reader at 540 nm (VERSAmax, Molecular Devices). The operating conditions are the same as in Example 12.

[2] = tested on: B16 melanocytes stimulated with NDP-MSH; assay: Anti-melanogenesis activity: melanin synthesis in B16 melanocytes stimulated with NDP-MSH; assay type: cell-based; conditions: Melanocyte, read-out: Standardized data Inhibition (%) (melanin)
Procedure: The depigmenting effect was evaluated on a line of type B16 melanocytes stimulated with NDP-MSH, (natural hormone stimulating melanogenesis; Melanocyte Stimulating Hormone, [Nle, DPhe]-α-MSH). Melanin synthesis was evaluated.
The anti-melanogenesis activity of the compounds in solution in DMSO was evaluated by measuring melanin synthesis in a model of B16 melanocytes stimulated with a stable derivative of α-MSH (natural melanogenesis stimulating hormone): NDP-MSH.
The melanocytes were seeded in a 96-well plate and were cultured for 24 h (37° C., 5% CO2, DMEM 1 g/L glucose without phenol red supplemented with glucose at 3 g/L, L-glutamine at 2 mM, penicillin at 50 U/mL, streptomycin at 50 μg/mL, foetal calf serum (FCS) at 10%). After incubation, the culture medium was then replaced with culture medium supplemented or not supplemented (unstimulated control) with a stable derivative of α-MSH and containing or not containing (controls) the test compounds or the reference (kojic acid at 25, 100, 400, 800 μg/mL). Each experiment was carried out with n=3, apart from the controls carried out with n=6, then the cells were incubated for 72 h. Wells without cells received in parallel the same quantities of medium supplemented or not supplemented with NDP-MSH and containing or not containing the test compounds or the reference in order to quantify the background noise associated with the presence of the compounds.
After incubation for 72 hours, the total melanin (intra- and extracellular) was quantified by measuring the absorption at 405 nm of each sample (direct reading of the culture plates) against a standard range of melanin (melanin concentrations tested from 0.78 to 100 μg/mL). The background noise, measured in the wells without cells, was subtracted from the measured values so as only to take into account the effect connected with melanin production, without taking into account the possible interference connected with the presence of the compounds. The results were expressed as percentage of melanin relative to the control as well as percentage inhibition.
The operating conditions are the same as in Example 12.

[3] = NDP-MSH stimulated B16, 72 h, Table 2
[4] = comparison with 2 reference molecules, Table 3

Row | SMILES | Viability (MTT) % stimulated control ([1]; 30 μM, B16, 72 h, Table 2) [%] | inhibition at 30 µM [2, 3] [%] | Viability (MTT) % stimulated control ([1]; 3 μM, B16, 72 h, Table 2) [%] | Viability (MTT) % stimulated control ([1]; 10 μM, B16, 72 h, Table 2) [%] | inhibition at 3 µM [2, 3] [%] | inhibition at 10 µM [2, 3] [%] | also measured
1 | Oc1ccc(OCCc2ccccc2F)cc1 [Compound 27] | 77 | 95 |  |  |  |  | 
2 | CC(=O)OC[C@H]1OC(Oc2ccccc2CCOc2ccc(F)cc2)[C@H](OC(C)=O)[C@@H](OC(C)=O)[C@@H]1OC(C)=O (stereo partly drawn) [Compound 30] | 88 | 13 |  |  |  |  | 
3 | Oc1ccccc1CCOc1ccc(Cl)cc1 [Compound 31] | 88 | 109 | 91 | 104 | 20 | 70 | 
4 | CCc1ccc(OCCc2ccccc2O)cc1 [Compound 35] | 88 | 112 | 105 | 97 | 54 | 92 | 
5 | CC(C)c1ccc(OCCc2ccccc2O)cc1 [Compound 39] | 86 | 119 | 119 | 101 | 70 | 111 | 
6 | CC(C)c1ccc(OCC(=O)c2ccccc2O)cc1 [Compound 40] | 90 | 58 |  | 102 |  | 5 | 
7 | CCC(C)(C)c1ccc(OCCc2ccccc2O)cc1 [Compound 43] | 9 | 120 | 116 | 90 | 88 | 119 | 
8 | CCC(C)(C)c1ccc(OCC(=O)c2ccccc2O)cc1 [Compound 44] | 80 | 117 |  | 89 |  | 24 | 
9 | CC(C)(C)c1ccc(OCCc2ccccc2O)cc1 [Compound 47] | 18 | 116 | 116 | 89 | 75 | 111 | 
10 | CCOc1ccc(OCC(O)c2ccccc2O)cc1 (stereo not drawn) [Compound 57] | 97 | 47 |  |  |  |  | 
11 | COc1ccccc1OCC(O)c1ccccc1O (stereo not drawn) [Compound 125] | 90 | 13 |  |  |  |  | 
12 | CC(=O)O[C@@H]1[C@@H](OC(C)=O)[C@@H](OC(C)=O)C(Oc2ccccc2CCOc2ccc(F)cc2)O[C@H]1C (stereo partly drawn) [Compound 127] | 90 | 29 |  |  |  |  | 
13 | CCCc1ccc(OCCc2ccccc2O)cc1 [Compound 130] | 81 | 116 | 98 | 89 | 72 | 110 | 
14 | O=c1cc(CO)occ1O [Kojic acid, reference compound] |  |  |  |  |  |  | Viability (MTT) % stimulated control ([1]; 25 μg/mL, B16, 72 h, Table 2): 85%; Viability (MTT) % stimulated control ([1]; 100 μg/mL, B16, 72 h, Table 2): 76%; Viability (MTT) % stimulated control ([1]; 400 μg/mL, B16, 72 h, Table 2): 76%; inhibition at 25 µg/mL ([2]; 25 μg/mL, NDP-MSH stimulated B16, 72 h, Table 2): 24%; inhibition at 100 µg/mL ([2]; 100 μg/mL, NDP-MSH stimulated B16, 72 h, Table 2): 78%; inhibition at 400 µg/mL ([2]; 400 μg/mL, NDP-MSH stimulated B16, 72 h, Table 2): 90%
15 | CCCCc1ccc(O)cc1O [Ref 1, 4-(2,4-dihydroxyphenyl)butane, reference compound] |  |  |  |  |  |  | inhibition at 30 µM [2, 4]: 82%; inhibition at 100 µM [2, 4]: 100%
16 | COc1ccc(CCCc2ccc(O)cc2O)c(OC)c1C [Ref 2, 1-(2,4-dihydroxyphenyl)-3-(2,4-dimethoxy-3-methylphenyl)propane, reference compound] |  |  |  |  |  |  | Viability (MTT) % stimulated control ([1]; 30 μM, comparison with 2 reference molecules, Table 3): 102%; Viability (MTT) % stimulated control ([1]; 100 μM, comparison with 2 reference molecules, Table 3): 76%; inhibition at 30 µM [2, 4]: 45%; inhibition at 100 µM [2, 4]: 113%
